The text below walks through data of patent US6376666B1 (Nauchno-Issledovatelsky Institut Farmakologii Rossiiskoi …, priority 1994, dated 2002).

SMILES strings stand for the structures.

What all share (format): in vivo
The subject of test [1] is Balb/c mice. Kind of test: open-field test, Balb/c mice (passive type of emotional-stress reaction). The arrangement: key to Total activity: sum of all locomotor activity counts (crossings + rearings) in 3 min. The conditions noted are these: for Central activity (crossings) / Number of defecations / Peripheral activity (crossings) / Total activity / Vertical activity (rearings): M ± mx; for effect on the behavior (locomotor activity) of Balb/c mice in open-field test, in words: i.p., screening. The text has this:
(§1) The main point of this approach consists in comparative analysis of the behavioural effects of tested compounds in two inbred strains of mice Balb/c and C57B1/6 with different hereditary types of emotional-stress reactions (ESR). The anxiolytic effect was estimated as the activation of the locomotor activity of animals with “passive” type of ESR (Balb/c mice). The main index describing the sedative properties of tested drugs was the inhibition of the locomotor activity of mice with “active” type of ESR (C57B1/6 strain). The anxioselectivity was evaluated according to coincidence of doses range which activated or inhibited the behavior of mice of different strains. Earlier this approach has been successfully used for estimation of anxioselective activity of such known drugs as phenazepam [Seredenin S. B. et al., Bull.Exp.Biol.Med., 1979, v.88, N7, p.38; Seredenin S. B. et al., Ann.Inst.Super.Sanita, 1990, v.26, N1, p.81-88], mexidol [Seredenin S. B. et al., Khimiko-Farmatsevt.Zhurnal, 1987, N2, p.134; Vironina T. A., Seredenin S. B., Ann.Inst.Super.Sanita, 1988, v.24, N3, p.461-466] and gidazepam [Seredenin S. B. et al., in: “Gidazepam” Kiev, Naukova Dumka, 1992, p.92; Seredenin S. B., Blednov Yu. A., Phys.Chem.Biol.Med., 1993, v.1, N1, p.53-60].
(§2) Male C57B1/6 and Balb/c mice (“Stolbovaya” animal farm), weighing 20-22 g were used. The animals were housed in a separate animal room in groups of ten and maintained on 12 h light-dark cycle (light from 8.00 till 20.00) with free access to standard food and water during two weeks before experiment. Testing was performed between 9.00 and 13.00. Every used compound was administered intraperitoneally in water solutions 30 min before testing (0,1 ml solution per 10 g of weight). The “open-field” apparatus consisted of cylinder closed from one end, illuminated by four 75 W lamps fixed to the walls 100 cm above the floor. The “open-field” apparatus was 100 cm in diameter and white-painted; the floor was marked with 3 black circles and some radial lines divided the floor into 16 peripheral and 8 central segments. 30 min after injection each animal was placed in the same peripheral square on the floor for 3 min of testing after 1 min exposure in the dark chamber. The following behavior variables were recorded: 1) the number of crossings in the peripheral area (peripheral activity); 2) the number of crossings in the central segments (central activity); 3) the number of rearings (vertical activity); 4) the emotionality was measured as the number of defecations during the test. The sum of all types of locomotor activity was marked as total activity. The t-Student test was used for statistical analysis.

In test [2] the test system is C57B1/6 mice. The test can be described thus: open-field test, C57B1/6 mice (active type of emotional-stress reaction). The arrangement: key to Total activity: sum of all locomotor activity counts (crossings + rearings) in 3 min. The conditions noted are these: for Central activity (crossings) / Peripheral activity (crossings) / Total activity / Vertical activity (rearings): M ± mx; for effect on locomotor activity of C57B1/6 mice in open-field test, in words: i.p., doses that activate Balb/c mice.
Description: as §1, §2

The subject of test [3] is cats. The test can be described thus: hemodynamics and activity of intact heart in cats under anesthesia. The conditions noted are these: cats i.v.; for effect on heart rate, in words: doses of 0,5 mg/kg-2,0 mg/kg. How it is done:
The effects of compounds on the hemodynamics and activity of intact heart were studied in cats under anesthesia. The experiments were carried out under conditions of open chest. The phase curve of aortic blood flow was the main index of cardiac activity. The compounds were administered i.v. in physiological solution. The t-Student' test was used to estimate the statistical significance.

As to `C=CCSc1nc2cc(C)c(C)cc2[nH]1` [III, 2-Allylthio-5,6-dimethylbenzimidazole], the “Central activity (crossings)” value turned out to be 3.3 ± 2.0 in test [1] (0.1 mg/kg i.p.); 0.6 ± 0.3 in test [1] (1.0 mg/kg i.p.); 0.3 ± 0.3 in test [1] (5.0 mg/kg i.p.); 3.3 ± 2.1 in test [1] (10.0 mg/kg i.p.); 42.1 ± 4.8 in test [2] (0.1 mg/kg i.p.); 42.1 ± 7.5 in test [2] (0.5 mg/kg i.p.). For the same compound, the “Central activity (crossings)” value in test [2] (1.0 mg/kg i.p.) came to 35.9 ± 7.6; in test [2] (5.0 mg/kg i.p.), 28.8 ± 6.9; in test [2] (10.0 mg/kg i.p.) it was 23.6 ± 5.3; in test [2] (50.0 mg/kg i.p.), 24.0 ± 2.7. Besides, the Number of defecations in test [1] (0.1 mg/kg i.p.) amounted to 2.5 ± 0.9; in test [1] (1.0 mg/kg i.p.), 2.5 ± 0.7; in test [1] (5.0 mg/kg i.p.), 3.0 ± 0.7; in test [1] (10.0 mg/kg i.p.) it was 2.0 ± 0.7; in test [1] (20.0 mg/kg i.p.), 1.5 ± 0.7. Also, the “Peripheral activity (crossings)” value in test [1] (0.1 mg/kg i.p.) is reported as 28.1 ± 5.8; in test [1] (1.0 mg/kg i.p.), 35.8 ± 6.1; in test [1] (5.0 mg/kg i.p.) it was 46.8 ± 9.9; in test [1] (10.0 mg/kg i.p.) it was 56.1 ± 12.2; in test [1] (20.0 mg/kg i.p.) it was 24.0 ± 11.5; in test [2] (0.1 mg/kg i.p.), 109.4 ± 8.3. For the same compound, the “Peripheral activity (crossings)” value stood at 118.4 ± 9.0 in test [2] (0.5 mg/kg i.p.); 107.8 ± 7.4 in test [2] (1.0 mg/kg i.p.); 130.8 ± 16.8 in test [2] (5.0 mg/kg i.p.); 118.0 ± 7.9 in test [2] (10.0 mg/kg i.p.); 105.2 ± 11.9 in test [2] (50.0 mg/kg i.p.). Also, the Total activity in test [1] (0.1 mg/kg i.p.) stood at 32.1 ± 7.9; in test [1] (1.0 mg/kg i.p.) it was 36.4 ± 6.4; in test [1] (5.0 mg/kg i.p.), 47.5 ± 10.3; in test [1] (10.0 mg/kg i.p.) it was 59.4 ± 13.8; in test [1] (20.0 mg/kg i.p.), 24.1 ± 11.5; in test [2] (0.1 mg/kg i.p.), 170.9 ± 10.0. Further, the Total activity in test [2] (0.5 mg/kg i.p.) amounted to 184.6 ± 8.6; in test [2] (1.0 mg/kg i.p.), 165.9 ± 13.5; in test [2] (5.0 mg/kg i.p.), 177.8 ± 20.7; in test [2] (10.0 mg/kg i.p.), 154.4 ± 13.3; in test [2] (50.0 mg/kg i.p.) it was 141.3 ± 11.7. For the same compound, the “Vertical activity (rearings)” value is 0.6 ± 0.4 in test [1] (0.1 mg/kg i.p.); 0.4 ± 0.3 in test [1] (5.0 mg/kg i.p.); 19.4 ± 3.4 in test [2] (0.1 mg/kg i.p.); 22.6 ± 2.0 in test [2] (0.5 mg/kg i.p.); 22.3 ± 3.8 in test [2] (1.0 mg/kg i.p.); 18.6 ± 2.7 in test [2] (5.0 mg/kg i.p.). The “Vertical activity (rearings)” value turned out to be 12.9 ± 1.8 in test [2] (10.0 mg/kg i.p.) and 12.1 ± 1.3 in test [2] (50.0 mg/kg i.p.). The “effect on the behavior (locomotor activity) of Balb/c mice in open-field test, in words” value (from here on “effect on the behavior”) in test [1] is listed as “able to activate the behavior of Balb/c mice”. Moreover, the “effect on locomotor activity of C57B1/6 mice in open-field test, in words” value in test [2] is listed as “without any changes in locomotor activity”.
`CCOc1ccc2nc(SCCN(CC)CC)[nH]c2c1` [VI, 2-2-[(Diethylamino)ethylthio]-5-ethoxybenzo-imidazole]: the “Peripheral activity (crossings)” value is on record as 3.0 ± 1.8 in test [1] (0.1 mg/kg i.p., 0.1 mg/kg); 3.3 ± 1.3 in test [1] (1.0 mg/kg i.p., 1 mg/kg); 3.1 ± 0.8 in test [1] (10.0 mg/kg i.p., 10 mg/kg). In addition, the Total activity in test [1] (0.1 mg/kg i.p., 0.1 mg/kg) is recorded as 3.0 ± 1.8; in test [1] (1.0 mg/kg i.p., 1 mg/kg) it was 3.7 ± 1.7; in test [1] (10.0 mg/kg i.p., 10 mg/kg), 3.1 ± 0.8. The “Vertical activity (rearings)” value in test [1] (1.0 mg/kg i.p.) amounted to 0.4 ± 0.4. For the same compound, the “effect on the behavior” value in test [1] is “inhibited the locomotor activity”. For the same compound, the “effect on heart rate, in words” value in test [3] is “small and short bradycardia”.
`Cc1cc2nc(SCCN3CCCC3)[nH]c2cc1C` [XIII, 2-[2-(Pyrrolidino)ethylthio]-5,6-dimethylbenzimidazole]: in test [1] (0.5 mg/kg i.p.), the “Central activity (crossings)” value was determined as 4.3 ± 4.1, the Number of defecations worked out at 2.9 ± 0.6, the “Peripheral activity (crossings)” value turned out to be 32.0 ± 5.7 and the Total activity is recorded as 36.3 ± 9.8. In test [1] (1.0 mg/kg i.p.), the “Central activity (crossings)” value came to 0.8 ± 0.5, the Number of defecations came to 1.0 ± 0.5, the “Peripheral activity (crossings)” value was 80.0 ± 11.2 and the Total activity worked out at 80.8 ± 11.7. In addition, in test [1] (5.0 mg/kg i.p.), the Number of defecations is given as 1.6 ± 0.7, the “Peripheral activity (crossings)” value worked out at 69.0 ± 13.2 and the Total activity is 69.0 ± 13.2. Further, in test [1] (50.0 mg/kg i.p.), the “Central activity (crossings)” value was 0.7 ± 0.5, the “Peripheral activity (crossings)” value is given as 27.7 ± 6.2 and the Total activity worked out at 28.4 ± 6.7. The “effect on the behavior” value in test [1] was “able to activate the behavior of Balb/c mice”. Also, in test [2], the “effect on locomotor activity of C57B1/6 mice in open-field test, in words” value is listed as “without any changes in locomotor activity”.
Consider `CCN(CC)CCSc1nc2ccccc2n1Cc1ccccc1` [XIX, 1-Benzyl-2-[2-(diethylarnino)ethylthio]benzimidazole], for which the “effect on the behavior” value in test [1] is reported as “inhibited the locomotor activity”. In test [3], the “effect on parameters of hemodynamics and heart activity, in words” value (“effect on parameters” for short) was “no effects on the parameters of hemodynamics and heart activity”.
Regarding `CCOc1ccc2nc(SCCN3CCCCC3)[nH]c2c1` [XI], the “effect on the behavior” value in test [1] is given as “neither activatory nor inhibitory effects”. For the same compound, in test [3], the “effect on parameters” value was “no effects on the parameters of hemodynamics and heart activity”.
With `Cc1cc2nc(SCCCN(C)C)[nH]c2cc1C` [XVI, 2-[3-(Dimethylamino)propylthio]-5,6-dimethylbenzimidazole], the “effect on the behavior” value in test [1] is recorded as “inhibited the locomotor activity”. For the same compound, the “effect on parameters” value in test [3] is “no effects on the parameters of hemodynamics and heart activity”.
Turning to `Cc1cc2nc(SCCCN3CCN(C)CC3)[nH]c2cc1C` [XVII, 2-[3-(4-Methylpyperazino)propylthio]-5,6-dimethylbenzimidazole], in test [1] (0.1 mg/kg i.p.), the “Central activity (crossings)” value turned out to be 0.5 ± 0.5, the Number of defecations is recorded as 2.0 ± 0.8, the “Peripheral activity (crossings)” value is listed as 4.0 ± 1.0 and the Total activity is recorded as 4.5 ± 1.5. Further, in test [1] (1.0 mg/kg i.p.), the Number of defecations is on record as 0.1 ± 0.1 and the “Peripheral activity (crossings)” value amounted to 7.7 ± 1.9. Also, the “effect on the behavior” value in test [1] was “inhibited the locomotor activity”. Moreover, the “effect on heart rate, in words” value in test [3] is “small and short bradycardia”.
Take `CN(C)CCSc1nc2ccccc2n1Cc1ccccc1` [XVIII, 1-Benzyl-2-[2-(dimethylamino)ethylthuo]benzimidazole]: the “effect on parameters” value in test [3] is “no effects on the parameters of hemodynamics and heart activity”.
Take `CCN(CC)CCSc1nc2ccccc2n1CCc1ccccc1` [XXI, 1-(β-Phenylethyl)-2-[2-(diethylamino)ethylthio]benzimidazole]: in test [1], the “effect on the behavior” value was “neither activatory nor inhibitory effects”. For the same compound, in test [3], the “effect on heart rate, in words” value was “small and short bradycardia”.
On to `c1ccc(CCn2c(SCCN3CCOCC3)nc3ccccc32)cc1` [XXII], for which the “effect on the behavior” value in test [1] is given as “neither activatory nor inhibitory effects”. Further, the “effect on parameters” value in test [3] is “no effects on the parameters of hemodynamics and heart activity”.
